Consider 4 compounds from patent US4149007A, “C14 Phenyl-substituted derivatives of prostaglandin analogues” (Miles Laboratories, Inc., priority 1977, dated 1979).

In one assay the test system is rabbit aortic strip. The experiment in a line: Cascade assay: rabbit aortic strip. It is filed as cell-based. The settings on record: in vitro, smooth muscle stimulant ED50 scored. On the procedure: (§1) (A) effects on the rat stomach, rat colon, chick rectum, and rabbit aorta in vitro (cascade assay);
(§2) The smooth muscle stimulant effects of test compounds were determined simultaneously in four different tissues that are known to be reactive to naturally occurring prostaglandins. Segments of rat stomach fundus, rat colon, chick rectum and rabbit aortic strip were obtained as described by: Vane, J. R., Brit. J. Pharmacol., 12: 344 (1957); Regoli, D. and Vane, J. R., Brit. J. Pharmacol., 23: 351 (1964); Mann, M. and West, G. B., Brit. J. Pharmacol., 5: 173 (1950); and Furchgott, R. F. and Bhadrakom, R., J. Pharmacol. Exper. Ther., 108: 129 (1953). One end of each preparation was tied to the bottom of a 10 ml tissue chamber and the other to a force displacement transducer (Grass FT-03) for continuous tension recording. The stomach, colon, and rectum segments were stretched to an initial tension of 1 g, while the aortic strip was subjected to 4 g. All preparations were left undisturbed for 1 hour prior to testing. […]
(§3) Test compounds were diluted from stock solutions so as to administer quantities ranging from 0.0001 to 100,000 ng in a volume of 0.5 ml. […] Maximal increases in tension after each dose were measured and the results were used to plot dose-response curves. […]
(§4) Activity in each tissue was scored according to the following scale: […]

Assay [1] has as its system human platelet. The experiment in a line: Inhibition of human platelet aggregation in vitro. It counts as cell-based. The settings on record: human platelet rich plasma, collagen-induced. On the procedure:
(E) effect on human platelet aggregation in vitro; and
The ability of test compounds to inhibit platelet aggregation was determined by a modification of the turbidometric technique of Born, G. V. R. (Nature, 194: 927 [1962]). Blood was collected from human volunteers, who had not ingested aspirin or aspirin-containing products within the preceding two weeks, in heparinized containers and was allowed to settle for one (1) hour. The platelet rich plasma (prp) supernates were collected and pooled. Siliconized glassware was used throughout.
In a representative assay, 1.9 ml of PRP and 0.2 ml of test compound at the appropriate concentration ([…]), or 0.2 ml of distilled water (control procedure) were placed in sample cuvettes. The cuvettes were placed in a 37° C. incubation block for 15 minutes, and then in a spectrophotometer linked to a strip chart recorder. After 30-60 seconds, 0.2 ml of a solution, prepared by diluting a calf-skin collagen solution 1:9 with Tyrodes' Solution, was added to each cuvette. Platelet aggregation was evidenced by a decrease in optical density.
An ED50 value was then determined graphically.

Another assay relates to rat stomach fundus. The experiment in a line: Cascade assay: rat stomach fundus. It counts as cell-based. The conditions noted are these: in vitro, smooth muscle stimulant ED50 scored. The method, then: as §1, §2, §3, §4
A further assay relates to rat uterus. The experiment in a line: Effects on the rat uterus in vitro. It is filed as cell-based. The settings on record: dose producing response 50% that of carbachol. The method, then: (B) effect on the rat uterus in vitro;
The uterine stimulant effect of test compounds was determined in segments of uterus obtained from rats (140-160 g) pretreated subcutaneously with 1 mg/kg of diethylstilbesterol 18 hours before the experiment. The tissues were placed in 10 ml chambers filled with de-Jalon solution at 29° C., were aerated and bubbled with 95% O2 and 5% CO2, and were prepared for isometric recording with force displacement transducers. Preparations were stretched to an initial tension of 1 g and were left undisturbed for 30 minutes. Carbachol (1 mcg/ml) was then added to the bath and a response was recorded. After a ten minute interval the carbachol procedure was repeated. Responses to increasing concentrations of a test compound (0.001 to 10 mcg/ml with one log intervals) were then recorded every 10 minutes. Preparations were washed four times after each response. All doses of compounds were administered in a 0.1 ml volume. Because it has been observed that the magnitude of the second response to carbachol (approximately 10% greater than the first) is close to the maximal response of the tissue, such value was taken as a measure of the sensitivity of a particular segment. Responses to each concentration of the test compound were expressed in terms of percentage of the second response to carbachol and the ED50 (dose producing a response 50% that of carbachol) was calculated graphically.
Activity was scored according to the following scale: […]

The subject of a further assay is rat. The experiment in a line: Effects on gastric secretion in the rat. It counts as in vivo. The conditions noted are these: pylorus ligated, 1.5 mg/kg s.c. twice (total 3.0 mg/kg), 4 hours. On the procedure: (F) effect on gastric secretion in the rat;
A procedure based on that described by Lipman, W. (J. Pharm. Pharmacol., 21: 335 [1968]) was used to assess the influence of test compounds on gastric secretion. Rats of one sex weighing 150 to 200 g were randomly divided into groups of six animals each and fasted for 48 hours previous to the experiments, water being available ad libitum. The animals were anesthetized with ether, the abdomen opened through a midline incision, and the pylorus ligated. Test compounds were diluted from stock solution so as to administer a dose of 1.5 mg/kg in a volume equivalent to 1 ml/kg. Subcutaneous injections were applied immediately after surgery and again 2 hours later, so that a total dose of 3.0 mg/kg was administered. Dilutions were made with phosphate buffer (pH 7.38) as recommended by Lee et al. (Prostaglandins, 3: 29 [1973]) in order to insure adequate stability of drugs at the subcutaneous depot. […]
Four hours after pyllric ligation the animals were killed with ether, the cardias ligated, and the stomachs removed. The volume of gastric secretion was measured and the contents centrifuged at 5000 rpm for 10 minutes. […]
Volume and total acid values of the treated group were compared with those of the controls […]. Antisecretory activity was scored according to the following scale: […]

Another assay concerns rat colon. The experiment in a line: Cascade assay: rat colon. It is filed as cell-based. The settings on record: in vitro, smooth muscle stimulant ED50 scored. The method, then: as §1, §2, §3, §4
In another assay the test system is chick rectum. The experiment in a line: Cascade assay: chick rectum. It is filed as cell-based. The settings on record: in vitro, smooth muscle stimulant ED50 scored. The method, then:
as §1, §2, §3, §4

A further assay deals with hypertensive rat. The experiment in a line: Effects on blood pressure in the hypertensive rat. The settings on record: 1 mg/kg intraperitoneal; 2, 4, 6 and 9 hours. The arrangement: key: 0: Not significant at any time interval; 1: Significant at one time interval; 2: Significant at two time intervals. It is filed as in vivo. The method, then:
(I) effect on systolic blood pressure in the hypertensive rat
The acute anithypertensive activity of test compounds was determined in rats made hypertensive by the procedure of Grollman (Proc. Soc. Exper Biol. Med., 57: 102 [1944]). Female rats weighing between 60 and 100 g were anesthetized with ether, the right kidney approached through a flank retroperitoneal incision, decapsulated and tied with a figure-of-eight-ligature. The animals were left to recover and two weeks later were again anesthetized and the contralateral kidney removed. […]
Blood pressure was measured in the tail with an inflatable occluding cuff placed at the base of the extremity and a pulse detector located distally. The cuff was inflated to approximately 300 mmHg and was slowly deflated until pulsations appeared, indicating the level of systolic pressure; diastolic pressure was not recorded by this procedure. […] In all cases, three pressure readings were obtained in succession and mean values were calculated thereof.
Experiments were carried out in groups of five hypertensive rats in which systolic pressure was determined immediately before and 2, 4, 6 and 9 hours after intraperiotoneal administration of the test compound at a dose of 1 mg/kg. Drugs were diluted from stock solutions with phosphate buffer (Lee et al., Prostaglandins, 3: 29 [1973]), so as to inject this quantity in a volume of 1 ml/kg. […]

In another assay the test system is growth hormone. The conditions noted are these: rats; cited from earlier work.
A further assay concerns man. The settings on record: cited from earlier work.
For assay [2], the system named is human platelet. The settings on record: compared with compounds of Formula IV; cited from earlier work.
The test system of another assay is blood platelets. The conditions noted are these: in vitro; cited from earlier work.
A further assay relates to tracheal smooth muscle. The conditions noted are these: in vitro, most mammalian respiratory tracts; cited from earlier work.
Another assay concerns adrenal glands. The conditions noted are these: hypophysectomized rats; cited from earlier work.
For assay [3], the system named is smooth muscle of the vas deferens. The conditions noted are these: cited from earlier work.
The test system of assay [4] is motor pathways in the central nervous system. The settings on record: cited from earlier work.
For assay [5] the following is noted: variety of mammals; cited from earlier work.

On to `COC(=O)CCCc1ccccc1CC1C(=O)CCC1/C=C(\c1ccccc1)[C@H](C)O` (stereo partly drawn) [Example 4, Methyl 5,6,17,18,19,20-hexanor-4,7,-inter-o-phenylene-14-phenyl-15S-hydroxy-9-oxo-ent-prost-13E-en-1-oate], for which, in the assay with rabbit aortic strip, the “Cascade, Aorta: activity value (ED50)” value was 0 (>10000). The “Platelet Aggregation: activity value (ED50)” value with human platelet [1] is 1 (>0.1 and ≤1.0). The “Cascade, Stomache: activity value (ED50)” value with rat stomach fundus was 0 (>10000). The “Rat Uterus: activity value (ED50)” value in the assay on rat uterus is 0 (>10). Also, the “Gastric Secretion: activity value (% decrease in acidity)” value in the assay with rat is listed as 0 (<26). In addition, in the assay on rat colon, the “Cascade, Colon: activity value (ED50)” value is on record as 0 (>10000). Moreover, in the assay on chick rectum, the “Cascade, Rectum: activity value (ED50)” value is reported as 0 (>10000). Besides, in the assay with hypertensive rat, the “Blood Pressure Hypertensive Rat: activity value” amounted to 0.
For the compound `CCCCC[C@H](O)/C=C/[C@H]1C=CC(=O)[C@@H]1CCCCCCC(=O)O` [PGA1], in the assay with growth hormone, the “synthesis of the growth hormone” value is “increases its synthesis”. Further, the “gastric secretion, man” value with man is listed as “exhibits similar activity in man”.
In the case of `CCCCC[C@H](O)/C=C/[C@H]1[C@H](O)CC(=O)[C@@H]1CCCCCCC(=O)O` [PGE1], the “inhibition of human platelet aggregation, comparison with natural prostaglandin” value in the assay on human platelet [2] is recorded as “displays similar activity”. Besides, in the assay on growth hormone, the “release of the growth hormone” value was “increase the release of the growth hormone”. In addition, in the assay on blood platelets, the “aggregation of blood platelets” value is given as “inhibits aggregation of blood platelets in vitro”. Besides, the “effect on tracheal smooth muscle” value with tracheal smooth muscle is “relax”. In addition, the “steroidogenesis in the adrenal glands” value with adrenal glands is “stimulate stereoidogenesis in the adrenal glands”. Moreover, the “effect on smooth muscle of the vas deferens” value in assay [3] was “contracts the smooth muscle of the vas deferens”. For the same compound, in assay [4], the “transmission along motor pathways in the central nervous system” value is given as “retards”.
For `CCCCC[C@H](O)/C=C/[C@@H]1[C@@H](CCCCCCC(=O)O)[C@@H](O)C[C@H]1O` [PGF1α], in the assay with adrenal glands, the “steroidogenesis in the adrenal glands” value is “stimulate stereoidogenesis in the adrenal glands”. Moreover, the luteolytic effect result in [5] is “act as luteolytic factors”.
